# In PMC10384936, “Identification and Biological Characterization of the Pyrazolo[3,4-d]pyrimidine Derivative SI388 Active as Src Inhibitor” (Pharmaceuticals, 2023):
# Key:
# osteosarcoma = system: osteosarcoma; parameters: method as in PMID 17929792; conditions: cited from earlier work
# Bcr-Abl = target: Bcr-Abl; parameters: method as in PMID 23746084, PMID 28650650, PMID 25469771, PMID 21443205, PMID 17929792; conditions: in-house lead compounds, Figure 1; cited from earlier work
# Src = target: T1, Src (Homo sapiens, UniProt P12931); experiment: Src enzymatic assay (ADP-Glo kinase assay); format: biochemical; conditions: for Ki: mean of at least three experiments, 100 μM ATP
# T1 construct: purchased Merck-Millipore
# Protocol: (§1) Src, Fyn, and Abl were purchased from Merck-Millipore. Reactions were performed according to the manufacturer’s instructions with minor modifications. All substrates were used at least at twice the concentration of apparent Km. In detail: Src reactions were performed using 500 μM Src-peptide (KVEKIGEGTYGVVYK), 100 μM ATP, and 0.00087% NP-40; Fyn reactions were performed using 360 μM Src-peptide (KVEKIGEGTYGVVYK), 200 μM ATP, and 0.0026% NP-40; Abl reactions were performed using 50 μM abltide (EAIYAAPFAKKK), 30 μM ATP, and 0.00087% NP-40. All reactions were performed using 10–50 ng of enzyme and 10% DMSO in 10 μL of kinase buffer (8 mM MOPS-NaOH pH7.0, 0.2 mM EDTA, 10 mM MgAc) at 30 °C for 10 min.
# (§2) To avoid peptide adsorbing to the plastic surface, protein low-binding tubes were used. ADP-Glo kinase assay (Promega) was then used to detect kinase activity according to the manufacturer’s instructions with minor modifications. In detail, reactions were transferred to white 384 well-plates and stopped by adding 10 µL of ADP-Glo reagent (Promega) for 50 min at room temperature. A total of 20 μL of detection reagent (Promega) was then added for 30 min and the reaction read using a GloMax Discover microplate reader (Promega). Data were plotted using GraphPad Prism 5.0. IC50 values were obtained according to Equation (1):v = V/{1 + (I/IC50)} (1) where v is the measured reaction velocity, V is the apparent maximal velocity in the absence of inhibitor, I is the inhibitor concentration, and IC50 is the 50% inhibitory dose. Compounds tested were assumed to act as fully ATP-competitive inhibitors. Therefore, Ki values were calculated according to Equation (2):Ki = IC50/(1+ […]) (2) where Ki is the affinity of the inhibitor to the enzyme, S is the ATP concentration, and Km is the affinity of ATP calculated according to the Michaelis–Menten equation.
# Abl = target: T2, Abl (Homo sapiens, UniProt P00519); experiment: Abl enzymatic assay (ADP-Glo kinase assay); format: biochemical; conditions: for Ki: mean of at least three experiments, 30 μM ATP, read-out: Bcr-Abl Ki
# T2 construct: purchased Merck-Millipore
# Protocol: as §1, §2
# 32D-T315I CML cells = conditions: mice inoculated with 32D-T315I CML cells; cited from earlier work
# GBM = system: GBM; parameters: method as in PMID 28650650, PMID 25469771; conditions: cited from earlier work
# NB = system: NB; parameters: method as in PMID 28650650, PMID 25469771; conditions: cited from earlier work
# GBMSC83 cells [1] = experiment: Neurosphere formation, cell counting and sphere size, GBMSC83; format: cell-based; conditions: 1 µM, 72 h, vs control
# Protocol: GBMSC83 cells were seeded at the density of 1 × 10^4 cells/well in a 96-well ultralow attachment plate, and the following day they were treated with SI388 1 µM or dasatinib 1 µM. After 72 h from treatment, cells were stained with Hoechst 33,342 (Thermo Fisher Scientific) and images were acquired with Fluorescence microscopy (ZEISS) and processed with Fiji version 2.3. Hoechst positive nuclei were counted by particle detection instrument of ComDet Plugin of Fiji. The bright fields were acquired and processed by Cell Profiler version 2.1.1 to measure spheres’ diameter and reported as the fold change from the control condition.
# U251 cells [2] = experiment: Clonogenic assay, U251; format: cell-based; conditions: 10 nM, 1 µM, 25 µM for 24 h, colonies after 15 days
# Protocol: (§3) To further characterize the ability of SI388 to inhibit tumor growth, we performed clonogenic assays using T98G and U251 cell lines. Cells were starved and treated for 24 h with increasing concentration (10 nM, 1 µM, and 25 µM) of SI388 or DAS. The ability of single cells to proliferate and produce colonies was evaluated after 15 days, both in control conditions (treated with DMSO) and after treatment with different Src inhibitors.
# (§4) For colony formation, control and irradiated (5 Gy) cells were seeded at the concentration of 1000 cells/dish in 6-well culture plates and incubated at 37 °C, 5% CO2 for 10–15 days.
# (§5) Crystal violet solution (10% (v/v) methanol and 0.5% Crystal Violet) was used to fix and stain colonies, upon 20 min incubation. The stained colonies (>50 cells) were counted under a microscope or using Image “Colonyarea” plugin. Data were expressed as the mean and SD of three independent experiments.
# GBMSC83 cells [3] = experiment: Cell death analysis, Annexin V-PI cytofluorimetry after IR, GBMSC83; format: cell-based; conditions: 1 µM pre-treatment 24 h, IR 10 Gy, 48 h after IR, vs control
# Protocol: GBMSC83 cells were pretreated with 1 µM SI388 or 1 µM DAS, or DMSO as a control, for 24 h and then irradiated (10 Gy). After 48 h from IR, cytofluorimetric analysis of AnnexinV-PI staining was performed.
# 1 × 10^6 cells were analyzed for cell death 48 h from ionizing radiation (10 Gy) upon staining with Annexin V-APC-propidium iodide (PI) kit, according to manufacturer instructions (eBioscience™ Annexin V apoptosis detection kits, ThermoFisher Scientific, Waltham, MA, USA). Unstained samples were used as the control. CytoFLEX S (Beckman Coulter, Milan, Italy) instrument was used to quantify the double staining. Quality control was evaluated using CytoFLEX Daily QC Fluorospheres (Beckman Coulter). CytExpert version 2.2 software (Beckman Coulter) was used to analyze FCS files. Dead cells were graphed as fold change to control conditions.
# T98G cells [4] = experiment: MTS assay after ionizing radiation, T98G; format: cell-based; conditions: 1 µM pre-treatment 24 h, IR 10 Gy, 48 h after IR, statistically significant
# Protocol: (§6) To this aim, T98G and U251 cells were pre-incubated or not with SI388 for 24 h and then irradiated (10 Gy).
# (§7) Cells were plated in 96 multiwells (1000 cells/well) in 100 µL of the complete medium. The following day, after 24 h of starvation, the cells were treated with DMSO, dasatinib or SI388 at different concentrations (10 nM, 1 µM, 25 µM). After 72 h, cells were treated with tetrazolium (Promega) for 1–2 h. The quantity of formazan product is directly proportional to the number of living cells in the culture. The plate is then read with a plate reader measuring the absorbance of 490 nm for the different conditions.
# T98G cells [5] = experiment: MTS cell viability assay, T98G; format: cell-based; conditions: 72 h, 10 nM, 1 µM, 25 µM
# Protocol: (§8) Next, the ability of SI388 to inhibit cell viability was evaluated using an MTS assay.
# as §7
# T98G cells [6] = experiment: Clonogenic assay, T98G; format: cell-based; conditions: 10 nM, 1 µM, 25 µM for 24 h, colonies after 15 days
# Protocol: as §3, §4, §5
# [7] = system: Src phosphorylation on Tyr416 in U251 cells; experiment: Immunoblotting of pY416-Src in U251 cells; format: cell-based; conditions: 10 nM and 1 µM, 24 h, vs DMSO
# Protocol: Dasatinib (Sigma Aldrich, DAS, Merck Millipore, Burlington, MA, USA), SI388 and SI83 were used at different concentration (10 nM, 1 µM or 25 µM) for 24 h upon serum deprivation. DMSO (Sigma Aldrich) was used as the control.
# (§9) Cell extracts were prepared in RIPA (50 mM Tris-HCl pH 8.0, 150 mM NaCl, 1% NP40, 1 mM EGTA, 1 mM EDTA, 0.25% sodium deoxycholate) or IP buffer (50 mM Tris–HCl pH 7.5, 250 mM NaCl, 1% NP-40, 5 mM EDTA, 5 mM EGTA) supplemented with protease and phosphatase inhibitors (Roche Diagnostic, Mannheim, Germany). For immunoblotting, 25–30 µg of protein was separated by sodium dodecyl sulfate (SDS) polyacrylamide gel electrophoresis (PAGE), blotted onto nitrocellulose membrane, and detected with specific antibodies.
# Fyn = target: T3, Fyn (Homo sapiens, UniProt P06241); experiment: Fyn enzymatic assay (ADP-Glo kinase assay); format: biochemical
# T3 construct: purchased Merck-Millipore
# Protocol: as §1, §2
# U251 cells [8] = experiment: MTS cell viability assay, U251; format: cell-based; conditions: 72 h, 10 nM, 1 µM, 25 µM
# Protocol: as §8, §7
# U251 cells [9] = experiment: MTS assay after ionizing radiation, U251; format: cell-based; conditions: 1 µM pre-treatment 24 h, IR 10 Gy, 48 h after IR, not statistically significant
# Protocol: as §6, §7
# [10] = system: Src phosphorylation on Tyr416 in GBMSC83 cells; experiment: Immunoblotting of pY416-Src in GBMSC83 cells; format: cell-based; conditions: 1 µM, 24 h
# Protocol: as §9
# T1 sequence (P12931 whole entry, species assumed): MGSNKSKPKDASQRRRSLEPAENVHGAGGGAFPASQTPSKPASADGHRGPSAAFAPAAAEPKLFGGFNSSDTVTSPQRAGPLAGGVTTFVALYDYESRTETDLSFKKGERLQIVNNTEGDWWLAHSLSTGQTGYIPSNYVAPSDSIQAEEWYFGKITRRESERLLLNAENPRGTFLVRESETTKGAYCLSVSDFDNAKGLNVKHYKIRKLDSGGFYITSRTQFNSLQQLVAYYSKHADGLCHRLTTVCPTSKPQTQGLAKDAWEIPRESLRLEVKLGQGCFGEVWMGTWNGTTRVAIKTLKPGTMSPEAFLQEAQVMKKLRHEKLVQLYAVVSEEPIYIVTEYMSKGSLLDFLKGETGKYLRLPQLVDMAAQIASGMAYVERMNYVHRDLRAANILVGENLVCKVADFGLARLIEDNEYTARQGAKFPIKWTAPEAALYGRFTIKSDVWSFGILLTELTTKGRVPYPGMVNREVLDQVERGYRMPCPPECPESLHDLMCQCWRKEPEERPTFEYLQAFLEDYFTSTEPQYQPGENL
# T2 sequence (P00519 whole entry, species assumed): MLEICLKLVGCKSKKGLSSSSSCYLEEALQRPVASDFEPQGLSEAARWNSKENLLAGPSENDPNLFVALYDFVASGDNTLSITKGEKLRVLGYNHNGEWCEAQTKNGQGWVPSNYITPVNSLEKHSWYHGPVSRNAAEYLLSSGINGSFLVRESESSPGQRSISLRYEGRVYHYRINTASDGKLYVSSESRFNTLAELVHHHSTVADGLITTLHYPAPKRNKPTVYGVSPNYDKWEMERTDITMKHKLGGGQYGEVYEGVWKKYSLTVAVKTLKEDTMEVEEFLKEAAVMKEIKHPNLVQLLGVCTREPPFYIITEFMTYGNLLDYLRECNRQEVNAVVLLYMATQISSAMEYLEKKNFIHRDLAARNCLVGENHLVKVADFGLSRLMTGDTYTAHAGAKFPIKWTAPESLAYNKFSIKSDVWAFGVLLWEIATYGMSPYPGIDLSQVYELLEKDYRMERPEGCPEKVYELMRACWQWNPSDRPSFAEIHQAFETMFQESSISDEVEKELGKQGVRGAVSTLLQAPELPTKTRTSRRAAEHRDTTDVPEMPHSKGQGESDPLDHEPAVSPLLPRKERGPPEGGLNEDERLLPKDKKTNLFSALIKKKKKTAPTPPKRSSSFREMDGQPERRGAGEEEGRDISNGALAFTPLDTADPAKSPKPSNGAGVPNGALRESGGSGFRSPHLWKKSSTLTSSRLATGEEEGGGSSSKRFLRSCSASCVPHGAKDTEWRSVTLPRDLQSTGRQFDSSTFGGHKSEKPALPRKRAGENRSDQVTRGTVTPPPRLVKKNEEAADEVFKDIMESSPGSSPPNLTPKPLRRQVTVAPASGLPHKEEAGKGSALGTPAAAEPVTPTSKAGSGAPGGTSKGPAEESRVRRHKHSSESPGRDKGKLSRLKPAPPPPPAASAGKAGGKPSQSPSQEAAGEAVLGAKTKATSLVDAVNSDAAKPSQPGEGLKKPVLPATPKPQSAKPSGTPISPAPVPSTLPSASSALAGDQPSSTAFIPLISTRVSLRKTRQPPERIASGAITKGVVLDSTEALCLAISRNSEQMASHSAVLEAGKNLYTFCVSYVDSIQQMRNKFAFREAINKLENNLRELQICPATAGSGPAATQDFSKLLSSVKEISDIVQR
# T3 sequence (P06241 whole entry, species assumed): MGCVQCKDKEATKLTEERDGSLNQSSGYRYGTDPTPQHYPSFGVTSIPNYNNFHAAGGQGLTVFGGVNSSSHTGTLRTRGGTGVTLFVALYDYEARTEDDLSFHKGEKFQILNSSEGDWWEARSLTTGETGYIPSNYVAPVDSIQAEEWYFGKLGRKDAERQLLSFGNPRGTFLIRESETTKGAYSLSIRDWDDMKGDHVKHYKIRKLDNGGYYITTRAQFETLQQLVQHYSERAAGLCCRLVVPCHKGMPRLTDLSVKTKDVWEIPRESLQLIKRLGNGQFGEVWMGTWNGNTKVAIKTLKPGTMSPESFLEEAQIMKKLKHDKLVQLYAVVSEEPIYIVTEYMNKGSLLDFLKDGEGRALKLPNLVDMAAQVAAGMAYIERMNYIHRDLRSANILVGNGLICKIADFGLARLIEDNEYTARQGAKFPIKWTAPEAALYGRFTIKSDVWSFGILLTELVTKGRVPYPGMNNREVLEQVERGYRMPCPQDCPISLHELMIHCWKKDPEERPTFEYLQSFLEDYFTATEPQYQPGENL
Ki (Src) [nM],Ki (Abl) [nM],SMILES,Ki (Bcr-Abl) [nM],Mean neurosphere diameter (GBMSC83 cells [1]),Number of cells per sphere (GBMSC83 cells [1]),Colony formation (cell growth and proliferation) (U251 cells [2]),Percentage of cell death after IR (AnnexinV-PI) (GBMSC83 cells [3]),Colony formation (cell growth and proliferation) (T98G cells [6]),other results
600,600,"CSc1nc(Nc2cccc(Cl)c2)c2cnn(CC(Cl)c3ccccc3)c2n1 (stereo not drawn) [1a, reference compound]",600,–,–,–,–,–,Activity in xenograft mouse model of osteosarcoma (osteosarcoma): active
–,–,ClC(Cn1ncc2c(Nc3ccccc3)ncnc21)c1ccc(Br)cc1 (stereo not drawn) [1b],–,–,–,–,–,–,Reduction of tumor volume (32D-T315I CML cells): more than 50%
–,–,ClC(Cn1ncc2c(Nc3cccc(Br)c3)nc(SCCN3CCOCC3)nc21)c1ccccc1 (stereo not drawn) [1c],120,–,–,–,–,–,Activity in in vivo model of GBM (GBM): showed activity; Activity in in vivo model of NB (NB): showed activity
423 ± 93,450 ± 290,"CSc1nc(Nc2ccccc2Cl)c2cnn(CC(Cl)c3ccccc3)c2n1 (stereo not drawn) [2a, 1-(2-Chloro-2-phenylethyl)-N-(2-chlorophenyl)-6-(methylthio)-1H-pyrazolo[3,4-d]pyrimidin-4-amine]",–,overall reduced diameter of the spheres,reduced average number of cells per sphere,impaired cell growth and proliferation in a dose-dependent manner,significantly increased the percentage of cell death,impaired cell growth and proliferation in a dose-dependent manner,"Sensitivity to IR (inhibition of cell viability, MTS) (T98G cells [4]): increases the sensitivity to IR; Cell viability (MTS) (T98G cells [5]): significantly impaired cell viability; Src phosphorylation on Tyr416 (pY416-Src) [7]: reduction in Src phosphorylation on Tyr416; inhibition at 10 µM (Fyn; 10 µM): 90.7%; Ki (Fyn; mean of at least three experiments, 200 μM ATP): 419 ± 75 nM; Cell viability (MTS) (U251 cells [8]): significantly impaired cell viability; inhibition at 10 µM (Src; 10 µM): 90%; Sensitivity to IR (inhibition of cell viability, MTS) (U251 cells [9]): increases the sensitivity to IR; Phosphorylation of Src on Tyr416 [10]: significant reduction in phosphorylation of Src on Tyr416; inhibition at 10 µM (Abl; 10 µM): 72%"
–,–,"Cc1nc(Nc2ncc(C(=O)Nc3c(C)cccc3Cl)s2)cc(N2CCN(CCO)CC2)n1 [dasatinib, reference compound]",–,overall reduced diameter of the spheres,reduced average number of cells per sphere,impaired cell growth and proliferation in a dose-dependent manner,significantly increased the percentage of cell death,impaired cell growth and proliferation in a dose-dependent manner,–
